The test system of experiment [1] is HIV-1 JR-CSF. The experiment in a line: HIV-1/HCV co-culture co-infection, HIV-1 p24 ELISA. Type of experiment: cell-based. As to the method: (§1) CD4+ T-lymphocytes and Huh7.5.1 cells uninfected or infected for 3 h as described above were mixed in a single flask and HIV-1 and HCV replication monitored over a period of 3 weeks as described above.
(§2) HIV-1 target cells—CD4+ T-lymphocytes—and HCV target cells—hepatoma cells—were placed in a single chamber (flask), exposed to both HIV-1 and HCV, and viral replication monitored over time by p24 capsid and core ELISAs, respectively.
(§3) CD4+ T-lymphocytes (A) and Huh7.5.1 cells (B) (0.5 x 10^6 cells) (triplicates) were exposed to HIV-1 JR-CSF and HCV JFH-1. Drugs (2 μM) were added 3 h pre-viral exposure (top panels) or 3 days post-viral exposure (bottom panels). Viral replications were monitored by HIV-1 p24 and HCV core ELISAs. C. CD4+ T-lymphocytes (0.5 x 10^6 cells) (triplicates) were exposed to HIV-1 JR-CSF. Drugs were initially added 3 days post-viral exposure (2 μM) and then daily (0.5 μM). Viral replications were monitored by HIV-1 p24 and HCV core ELISAs. […] D. Model for the HIV-1/HCV co-culture system.
On the technique in general: ELISA stands for enzyme-linked immunosorbent assay.

The subject of experiment [2] is HIV-1 JR-CSF. The experiment in a line: HIV-1 mono-infection of CD4+ T-lymphocytes, p24 ELISA. The format is cell-based. Conditions: Fig 1A. The source says:
Hemoglobin determinations at every donation protect the donor from phlebotomy-induced anemia. The donor pool also provides investigators with a mix of gender and minority subjects, and recruitment is ongoing for underrepresented minorities. At the present time, the NBDS has 320 active normal blood donors enrolled. Use of the Normal Blood Donor Service is considered “human subjects” research and each investigator who wants to use the service must submit a protocol to the IRB for review and approval. Dr. Gallay has current IRB approval for the human blood obtained for research described in this manuscript. Protocol No: IRB-15-6552. Full name of the IRB is "Scripps IRB". […] Consent from blood donors was obtained verbally. The authors have no access to identifying donor information for these samples.

Experiment [3] addresses CypA-HIV-1 capsid complex (Homo sapiens, UniProt P62937). The experiment in a line: CypA-HIV-1 capsid interaction ELISA. Type of experiment: binding. To be noted: 16 h at 4°C. The protocol:
(§4) Recombinant GST-CypA, full-length HCV NS5A Con1 (pET-Ub-NS5A Con1-His) and HIV-1 capsid NL4.3 (pET-capsid-His) were expressed and purified as described previously. Inhibition of CypA-HCV NS5A and CypA-HIV-1 capsid interactions by the CypI […] were conducted as we described previously.
(§5) CypI are thought to inhibit the infection of HIV-1 and HCV mostly by preventing CypA-HIV-1 capsid and CypA-HCV NS5A interactions, respectively. The potency of CypI at inhibiting these interactions was determined using an ELISA assay previously developed in our laboratory. For analyzing CypA-HCV NS5A interactions, recombinant NS5A-His was added to GST-CypA-coated wells for 16 h at 4°C in the absence or presence of CypI, followed by detection of captured NS5A-His with anti-His antibodies. A similar assay was used for CypA-HIV-1 interactions except with recombinant His-tagged HIV-1 capsid.

Another experiment relates to HIV-1 wild-type (NL4.3). Nature of the experiment: HIV-1 infection of TZM reporter cells, β-galactosidase. The format is cell-based. To be noted: read-out: EC50, inhibition of HIV-1 infection. The source says: (§6) the reverse transcriptase inhibitor-resistant HIV-1 variant (nevirapine-resistant N119), the protease inhibitor-resistant HIV-1 variant (saquinavir-resistant), and the naturally occurring primary ALV-resistant variant CMU08 (contributed by Kenrad Nelson) were obtained from the AIDS Research and Reference Reagent Program. Lab-adapted wild-type NL4.3 and the ALV-resistant V86P/H87Q/I91V/M96I NL4.3 capsid mutant variant were described previously. For infection scoring, TZM-bl target cells (contributed by J. C. Kappes, X. Wu, and Tranzyme, Inc.) obtained through the AIDS Research and Reference Reagent Program were exposed to wild-type or drug-resistant HIV-1 variants (1 ng of p24) together with increasing concentrations of DMSO or CypI. HIV-1 infection was quantified 48 h post-infection by measuring β-galactosidase activity in cell lysates.
(§7) We then tested the efficacy of CPI-431-32 and ALV against a panel of drug-resistant HIV-1 and HCV variants. Specifically, we measured CPI-431-32 EC50 on a reverse transcriptase inhibitor-resistant HIV-1 variant (nevirapine-resistant), a protease inhibitor-resistant HIV-1 variant (saquinavir-resistant), and two partially ALV-resistant HIV-1 variants—a lab-adapted resistant variant (V86P/H87Q/I91V/M96I capsid mutant) and a naturally occurring primary partially resistant variant (CMU08). […] HIV-1 infection was quantified 48 h post-infection by measuring β-galactosidase activity in cell lysates.

Experiment [4] relates to HIV-1 ALV-resistant (CMU8). The experiment is described as above. Type of experiment: cell-based. Conditions: read-out: EC50, inhibition of HIV-1 infection.
From the text: as §6, §7

The test system of experiment [5] is HIV-1 reverse transcriptase (nevirapine)-resistant. Described as above. Type of experiment: cell-based. Conditions: read-out: EC50, inhibition of HIV-1 infection.
From the text: as §6, §7

In experiment [6] the test system is HIV-1 ALV-resistant (NL4.3 V86P/H87Q/I91V/M96I). The experiment is described as above. Type of experiment: cell-based. Conditions: read-out: EC50, inhibition of HIV-1 infection.
From the text: as §6, §7

Experiment [7] relates to HIV-1 protease (saquinavir)-resistant. Described as above. Conditions: read-out: EC50, inhibition of HIV-1 infection. Type of experiment: cell-based.
From the text: as §6, §7

For a further experiment, the system named is HCV JFH-1. The experiment in a line: HIV-1/HCV co-culture co-infection, HCV core ELISA. The format is cell-based. The protocol:
as §1, §2, §3

The subject of experiment [8] is HCV CsA-sensitive (S328P). The experiment in a line: HCV Luc-Con1 replicon replication in Huh7.5 cells, luciferase. The format is cell-based. Conditions: read-out: EC50, inhibition of HCV replication. As to the method:
The GT1b subgenomic firefly luciferase reporter replicon pFK-I389/NS3–3 was provided by R. Bartenschlager. The GT1B subgenomic NS3 (R155Q/A156T), NS5A (L31V, D320E/Y321N, S328P and P313A/P318A), and NS5B (S282T) mutants were created as previously. Half-maximal effective concentration (EC50) measurements were conducted as previously.
We took advantage of the DAA-resistant HCV genotype 1b Con1 replicons that we previously generated: the NS3 inhibitor-resistant R155Q/A156T NS3, the NS5A inhibitor-resistant L31V NS5A replicon, and the NS5B inhibitor-resistant S282T NS5B replicons. […] EC50 HCV data are expressed in nM whereas EC50 HIV-1 data are expressed in μM.
Background: A replicon is a self-replicating genome or part of one, used to study replication in cells.

A further experiment deals with CypA-HCV NS5A complex (Homo sapiens, UniProt P62937). The experiment in a line: CypA-HCV NS5A interaction ELISA. To be noted: Table 2; NS5A-His on GST-CypA-coated plates, 16 h at 4°C; read-out: IC50, inhibition of NS5A binding to CypA. As to the method:
as §4, §5

Where [9] appears, read: drug treatments begun 3 h before virus addition.
Setting [10] is: single dose added 3 days post-infection.
The mark [11] stands for this setting: Human immunodeficiency virus 1, TZM, 48 h.

Like-named read-outs stand apart in the source and are kept apart here. Non-standard residues stand in square brackets, D forms with d. Residues, ends and D or L forms follow the SMILES beside them. NMeThr(4R-Me,4-(CH2)6NHAc) = CN[C@H](C(=O)O)[C@H](O)[C@H](C)CCCCCCNC(C)=O; NMeL = CN[C@@H](CC(C)C)C(=O)O; NMeV = CN[C@H](C(=O)O)C(C)C; dNMeA = CN[C@H](C)C(=O)O; Abu = CC[C@H](N)C(=O)O

CypA-HIV-1 capsid complex, sequence (P62937 whole entry, one chain of several): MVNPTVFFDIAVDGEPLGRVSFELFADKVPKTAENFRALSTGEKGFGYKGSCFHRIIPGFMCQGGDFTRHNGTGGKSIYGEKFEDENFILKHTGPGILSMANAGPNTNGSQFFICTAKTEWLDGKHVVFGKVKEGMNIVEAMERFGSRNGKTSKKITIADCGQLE
CypA-HCV NS5A complex, sequence (P62937 whole entry, one chain of several): as above

One may read the IC50 as the concentration at which inhibition is half-maximal. In general, EC50 refers to the concentration that produces a half-maximal response. With `CC[C@@H]1NC(=O)[C@H]([C@H](O)[C@H](C)CCCCCCNC(C)=O)N(C)C(=O)[C@H](C(C)C)N(C)C(=O)[C@H](CC(C)C)N(C)C(=O)[C@H](CC(C)C)N(C)C(=O)[C@@H](C)NC(=O)[C@H](C)NC(=O)[C@H](CC(C)C)N(C)C(=O)[C@H](C(C)C)NC(=O)[C@H](CC(C)C)N(C)C(=O)[C@@H](C)N(C)C1=O` [CPI-431-32] (cyclo(A[dA][NMeL][NMeL][NMeV][NMeThr(4R-Me,4-(CH2)6NHAc)][Abu][dNMeA][NMeL]V[NMeL])), the “Effect on HIV-1 replication (in words)” value in the experiment with HIV-1 JR-CSF [1] (setting [9]) is “totally prevented HIV-1 replication”; in the experiment with HIV-1 JR-CSF [1] (setting [10]), “halted HIV-1 replication”; in the experiment on HIV-1 JR-CSF [2], “efficiently blocked viral growth”. Moreover, the IC50 in experiment [3] (read-out: IC50, inhibition of CypA-HIV-1 capsid interactions) is 210 ± 10 nM; in experiment [3] (Table 2, capsid-His on GST-CypA-coated plates, read-out: IC50, inhibition of capsid binding to CypA), 230 ± 10 nM; on CypA-HCV NS5A complex, 180 ± 30 nM. Moreover, the EC50 was determined as 50 ± 10 nM in the experiment on HIV-1 wild-type (NL4.3) (48 h post-infection); 2100 ± 100 nM in experiment [4] (HIV-1 ALV-resistant (CMU8), TZM cells, 48 h post-infection); 30 ± 10 nM in experiment [5] (HIV-1 reverse transcriptase (nevirapine)-resistant, TZM cells, 48 h post-infection); 900 ± 100 nM in experiment [6] (HIV-1 ALV-resistant (NL4.3 V86P/H87Q/I91V/M96I), TZM cells, 48 h post-infection); 70 ± 20 nM in experiment [7] (HIV-1 protease (saquinavir)-resistant, TZM cells, 48 h post-infection); 5.1 ± 0.3 nM in experiment [8] (HCV CsA-sensitive (S328P) replicon, Huh7.5 cells, 72 h). Further, the “Effect on HCV replication (in words)” value in the experiment on HCV JFH-1 (setting [9]) is “completely prevented”; in the experiment on HCV JFH-1 (setting [10]) it was “immediately and gradually caused a decline in HCV levels”.
As to `C/C=C/C[C@@H](C)[C@@H](O)[C@H]1C(=O)N[C@@H](CC)C(=O)N(C)[C@H](C)C(=O)N(CC)[C@@H](C(C)C)C(=O)N[C@@H](C(C)C)C(=O)N(C)[C@@H](CC(C)C)C(=O)N[C@@H](C)C(=O)N[C@H](C)C(=O)N(C)[C@@H](CC(C)C)C(=O)N(C)[C@@H](CC(C)C)C(=O)N(C)[C@@H](C(C)C)C(=O)N1C` [ALV, Alisporivir], the “Effect on HIV-1 replication (in words)” value with HIV-1 JR-CSF [1] (setting [9]) is on record as “totally prevented HIV-1 replication”; with HIV-1 JR-CSF [1] (setting [10]), “a small degree of replication occurred within the first 3 days of addition”; in the experiment with HIV-1 JR-CSF [2] it was “efficiently blocked viral growth”. Also, the IC50 worked out at 410 ± 50 nM in experiment [3] (IC50, inhibition of CypA-HIV-1 capsid interactions); 420 ± 110 nM in [3] (IC50, inhibition of capsid binding to CypA, Table 2, capsid-His on GST-CypA-coated plates); 420 ± 50 nM at CypA-HCV NS5A complex. Further, the half-maximal effective concentration (EC50) in the experiment on HIV-1 wild-type (NL4.3) (Human immunodeficiency virus 1, 48 h post-infection) stood at 120 ± 30 nM; in [4] (setting [11]) it was 5600 ± 400 nM; in experiment [5] (setting [11]), 100 ± 20 nM; in experiment [6] (setting [11]) it was 2300 ± 300 nM; in experiment [7] (setting [11]) it was 160 ± 20 nM; in experiment [8] (Hepatitis C virus, Huh7.5, 72 h) it was 5.6 ± 1.1 nM. For the same molecule, the “Effect on HCV replication (in words)” value with HCV JFH-1 (setting [9]) was “completely prevented”; in the experiment on HCV JFH-1 (setting [10]), “immediately and gradually caused a decline in HCV levels”.

Source of the values: paper PMC4532424, “The Novel Cyclophilin Inhibitor CPI-431-32 Concurrently Blocks HCV and HIV-1 Infections via a Similar Mechanism of Action” (PLoS ONE, 2015).
